According to patent US12492337B2, “Fluorescent probe, preparation method therefor and use thereof” (FLUORESCENCE DIAGNOSIS (SHANGHAI) BIOTECH COMPANY, priority 2017, dated 2025):

Assays:
[1] = Viscosity responsiveness: fluorescence intensity in glycerol versus methanol; assay type: physicochemical; conditions: fluorescence intensity in glycerol to that in methanol
Procedure: The above-mentioned viscosity-responsive fluorescent dye means that the fluorescence intensity of the dye responds to the viscosity of the solution. As the viscosity of the solution increases, the fluorescence intensity increases. Optionally, the viscosity-responsive fluorescent dye is an organic dye molecule which, under the same concentration and excitation wavelength, at 25° C. has a ratio • of the maximum fluorescence emission intensity of the dye in glycerol to the fluorescence intensity in methanol of greater than 2, optionally greater than 5, optionally greater than 10. The concentration of the viscosity-responsive dye ranges from 1×10^−7 M to 1×10^−5 M.

[2] = Quantum yield of free probe not reacted with protein tag; assay type: physicochemical
Procedure: (§1) A probe was mixed with a corresponding HaloTag protein tag to obtain a mixed sample. The final concentration of the probe in the mixed sample was 5 μM and the final concentration of the protein tag was 10 μM. The mixed sample was incubated at 37° C. for 1 hour, and the sample was detected using a fluorescence spectrophotometer.

HaloTag protein tag = test: Probe mixed with HaloTag protein tag, fluorescence spectrophotometer (Example 86); assay type: biochemical; conditions: 5 μM probe, 10 μM protein tag, 37° C., 1 hour; for Fluorescence enhancement: fluorescence activation multiple after binding protein tag; for Emission/nm: fluorescence emission wavelength
Procedure: as §1

ratio [1] | The quantum yield of the free probe [2] | The quantum yield after binding to Halo-tag (HaloTag protein tag) | Emission/nm (HaloTag protein tag) [nm] | Structure (SMILES) | Fluorescence enhancement (HaloTag protein tag)
1774 | <0.001 | 0.32 | 615 | COCCNC(=O)/C(C#N)=C/c1ccc(-c2ccc(N(C)CCOC(=O)NCCOCCOCCCCCCCl)cc2)o1 [Probe 34] | 857
391 | <0.001 | 0.66 | 570 | CN(CCO)c1ccc2cc(/C=C(\C#N)C(=O)NCCOCCOCCCCCCCl)sc2c1 [Probe 65] | 798
752 | <0.001 | 0.54 | 545 | N#C/C(=C\c1ccc2c(c1)SCCN2CCOC(=O)NCCOCCOCCCCCCCl)c1nc2ccccc2o1 [Probe 45] | 958
1134 | <0.001 | 0.43 | 620 | CN(CCOC(=O)NCCOCCOCCCCCCCl)c1ccc2nc(/C=C(\C#N)c3nc4ccccc4o3)ccc2c1 [Probe 27] | 665
358 | <0.001 | 0.53 | 637 | CN(CCOC(=O)NCCOCCOCCCCCCCl)c1cc2c(s1)-c1sc(/C=C(\C#N)C(=O)O)cc1C2(C)C [Probe 50] | 416
391 | <0.001 | 0.56 | 570 | CN(CCOC(=O)NCCOCCOCCCCCCCl)c1ccc2cc(/C=C(\C#N)C(=O)OC(C)(C)C)sc2c1 [Probe 13] | 816
452 | <0.001 | 0.41 | 660 | CN(C)c1cc2c(s1)-c1sc(/C=C3\SC(=O)N(CCOCCOCCCCCCCl)C3=O)cc1C2(C)C [Probe 78] | 369
341 | <0.001 | 0.47 | 640 | CN(CCOC(=O)NCCOCCOCCCCCCCl)c1ccc2nc(/C=C(\C#N)c3nc4ccccc4o3)oc2c1 [Probe 20] | 612

Structure (SMILES) | ratio [1] | The quantum yield of the free probe [2] | The quantum yield after binding to Halo-tag (HaloTag protein tag) | Emission/nm (HaloTag protein tag) [nm] | Fluorescence enhancement (HaloTag protein tag)
CN1C(=O)/C(=C\c2cc3c(s2)-c2sc(N(C)CCOC(=O)NCCOCCOCCCCCCCl)cc2[Si]3(C)C)SC1=S [Probe 56] | 436 | <0.001 | 0.47 | 725 | 989
COCCNC(=S)/C(C#N)=C/c1cc2c(s1)-c1sc(N(C)CCOC(=O)NCCOCCOCCCCCCCl)cc1[Si]2(C)C [Probe 54] | 391 | <0.001 | 0.41 | 710 | 498
CN1C(=O)/C(=C/c2ccc(N(C)CCOC(=O)NCCOCCOCCCCCCCl)cc2)N=C1/C=C/c1ccccc1 [Probe 7] | 1455 | <0.001 | 0.46 | 580 | 1502
